The test system of one data set is Leptochloa chinensis. The data set is described as follows: Test Example 3: herbicidal effect by foliage application, Wagner pot (symbol D). In kind it is in vivo. An outline of the steps: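 Seeds sown in alluvial soil kept under 0.1–0.5 cm water, greenhouse 25–30 °C; 14 d growth. Leaves treated by small sprayer with water-diluted emulsion at a predetermined rate. Effect graded by set scale, 3 weeks.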

The subject of another data set is Lolium multiflorum Lam. The data set is described as follows: Test Example 4: herbicidal effect by soil treatment (symbol K). It counts as in vivo. An outline of the steps:
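Seeds were sown in sterilized diluvial soil, covered with about 1.5 cm of soil, and the soil surface was sprayed with a water-diluted emulsion of the compound at a predetermined rate. Plants grew in a greenhouse at 25° C. to 30° C.; effects were scored visually 3 weeks after application.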

Another data set relates to corn. Briefly: Test Example 4: effect on crop by soil treatment (symbol c). In kind it is in vivo. An outline of the steps:
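Greenhouse culture at 25° C. to 30° C. followed sowing of seed in spots on sterilized diluvial soil with a soil cover close to 1.5 cm thick.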

[1] abbreviates: application herbicide amount 320 g/ha.

The values that follow come from US11000033B2, “Ketone or oxime compound, and herbicide” (NISSAN CHEMICAL CORPORATION, priority 2014, dated 2021).

Consider `Cc1cc(C)c(C2=C(O)CC(CC(=NOCC(F)(F)F)C3CC3)C2=O)c(C)c1` (stereo not drawn) [1-131], for which the melting point (commonly the temperature, or range, at which the solid turns liquid) lay in the range of 137 to 138 °C. In the data set with Leptochloa chinensis (setting [1]), the “herbicidal effect on D (Leptochloa chinensis), grade 0-5” value (“herbicidal effect on D” for short) was 5 (Herbicidal ratio of 90% or more (almost completely withered)). Also, in the data set with Lolium multiflorum Lam. (320 g/ha), the “K: Lolium multiflorum Lam., herbicidal effect grade” value is given as 5 (Herbicidal ratio of 90% or more (almost completely withered)). Also, the “c: corn, effect grade on crop” value in the data set with corn (320 g/ha) is recorded as 0 (Herbicidal ratio of 5% or lower (almost no effect)).
`CCCON=C(C)CC1CC(O)=C(c2c(C)cc(C)cc2C)C1=O` (stereo not drawn) [1-123]: the melting point lay within 123 to 126 °C. Moreover, in the data set on Leptochloa chinensis (setting [1]), the “herbicidal effect on D” value is listed as 5 (Herbicidal ratio of 90% or more (almost completely withered)). Besides, the “K: Lolium multiflorum Lam., herbicidal effect grade” value with Lolium multiflorum Lam. (320 g/ha) was 5 (Herbicidal ratio of 90% or more (almost completely withered)). Besides, in the data set with corn (320 g/ha), the “c: corn, effect grade on crop” value is 3 (Herbicidal ratio of 40% or higher and lower than 70%).
`CC(=O)CC1CC(O)=C(c2c(C)cc(C)cc2C)C1=O` (stereo not drawn) [2-001, 3-hydroxy-2-mesityl-5-(2-oxopropyl)cyclopent-2-enone] returned a melting point of 183 to 185 °C. For the same compound, the “herbicidal effect on D” value with Leptochloa chinensis (application herbicide amount 102 g/ha) is recorded as 5 (Herbicidal ratio of 90% or more (almost completely withered)). Also, in the data set with Lolium multiflorum Lam. (102 g/ha), the “K: Lolium multiflorum Lam., herbicidal effect grade” value was 5 (Herbicidal ratio of 90% or more (almost completely withered)). The “c: corn, effect grade on crop” value with corn (102 g/ha) is 4 (Herbicidal ratio of 70% or higher and lower than 90%).
With `CON=C(CC1CC(O)=C(c2c(C)cc(C)cc2C)C1=O)C(F)(F)F` (stereo not drawn) [1-097], the melting point was 115 to 118 °C. In the data set with Lolium multiflorum Lam. (320 g/ha), the “K: Lolium multiflorum Lam., herbicidal effect grade” value is 2 (Herbicidal ratio of 20% or higher and lower than 40%). Also, in the data set with corn (320 g/ha), the “c: corn, effect grade on crop” value is 1 (Herbicidal ratio of 5% or higher and lower than 20%).
